Data from ChEMBL document CHEMBL4251687, “Acyl Sulfonamides NaV1.7 Blockers Useful for the Treatment of Pain” (ACS Med Chem Lett, 2018).
One block for each compound: values may come before it.

Columns and labels:
Format in all cases: cell-based
[1] = target: T1, Sodium channel protein type 9 subunit alpha (Homo sapiens, UniProt Q15858); assay: Displacement of [3H]-labelled radioligand from human Nav1.7 expressed in HEK293 cells measured after 24 hrs by liquid scintillation counting method
[2] = target: T1, Sodium channel protein type 9 subunit alpha; assay: Inhibition of Nav1.7 (unknown origin) expressed in HEK293 cells at -60 mV holding potential measured after 600 secs by patch clamp method
[3] = target: Sodium channel protein type 5 subunit alpha (Homo sapiens, UniProt Q14524); assay: Inhibition of Nav1.5 (unknown origin) expressed in HEK293 cells at -40 mV holding potential measured after 600 secs by patch clamp method
Sodium channel protein type 5 subunit alpha, sequence (Q14524 whole entry): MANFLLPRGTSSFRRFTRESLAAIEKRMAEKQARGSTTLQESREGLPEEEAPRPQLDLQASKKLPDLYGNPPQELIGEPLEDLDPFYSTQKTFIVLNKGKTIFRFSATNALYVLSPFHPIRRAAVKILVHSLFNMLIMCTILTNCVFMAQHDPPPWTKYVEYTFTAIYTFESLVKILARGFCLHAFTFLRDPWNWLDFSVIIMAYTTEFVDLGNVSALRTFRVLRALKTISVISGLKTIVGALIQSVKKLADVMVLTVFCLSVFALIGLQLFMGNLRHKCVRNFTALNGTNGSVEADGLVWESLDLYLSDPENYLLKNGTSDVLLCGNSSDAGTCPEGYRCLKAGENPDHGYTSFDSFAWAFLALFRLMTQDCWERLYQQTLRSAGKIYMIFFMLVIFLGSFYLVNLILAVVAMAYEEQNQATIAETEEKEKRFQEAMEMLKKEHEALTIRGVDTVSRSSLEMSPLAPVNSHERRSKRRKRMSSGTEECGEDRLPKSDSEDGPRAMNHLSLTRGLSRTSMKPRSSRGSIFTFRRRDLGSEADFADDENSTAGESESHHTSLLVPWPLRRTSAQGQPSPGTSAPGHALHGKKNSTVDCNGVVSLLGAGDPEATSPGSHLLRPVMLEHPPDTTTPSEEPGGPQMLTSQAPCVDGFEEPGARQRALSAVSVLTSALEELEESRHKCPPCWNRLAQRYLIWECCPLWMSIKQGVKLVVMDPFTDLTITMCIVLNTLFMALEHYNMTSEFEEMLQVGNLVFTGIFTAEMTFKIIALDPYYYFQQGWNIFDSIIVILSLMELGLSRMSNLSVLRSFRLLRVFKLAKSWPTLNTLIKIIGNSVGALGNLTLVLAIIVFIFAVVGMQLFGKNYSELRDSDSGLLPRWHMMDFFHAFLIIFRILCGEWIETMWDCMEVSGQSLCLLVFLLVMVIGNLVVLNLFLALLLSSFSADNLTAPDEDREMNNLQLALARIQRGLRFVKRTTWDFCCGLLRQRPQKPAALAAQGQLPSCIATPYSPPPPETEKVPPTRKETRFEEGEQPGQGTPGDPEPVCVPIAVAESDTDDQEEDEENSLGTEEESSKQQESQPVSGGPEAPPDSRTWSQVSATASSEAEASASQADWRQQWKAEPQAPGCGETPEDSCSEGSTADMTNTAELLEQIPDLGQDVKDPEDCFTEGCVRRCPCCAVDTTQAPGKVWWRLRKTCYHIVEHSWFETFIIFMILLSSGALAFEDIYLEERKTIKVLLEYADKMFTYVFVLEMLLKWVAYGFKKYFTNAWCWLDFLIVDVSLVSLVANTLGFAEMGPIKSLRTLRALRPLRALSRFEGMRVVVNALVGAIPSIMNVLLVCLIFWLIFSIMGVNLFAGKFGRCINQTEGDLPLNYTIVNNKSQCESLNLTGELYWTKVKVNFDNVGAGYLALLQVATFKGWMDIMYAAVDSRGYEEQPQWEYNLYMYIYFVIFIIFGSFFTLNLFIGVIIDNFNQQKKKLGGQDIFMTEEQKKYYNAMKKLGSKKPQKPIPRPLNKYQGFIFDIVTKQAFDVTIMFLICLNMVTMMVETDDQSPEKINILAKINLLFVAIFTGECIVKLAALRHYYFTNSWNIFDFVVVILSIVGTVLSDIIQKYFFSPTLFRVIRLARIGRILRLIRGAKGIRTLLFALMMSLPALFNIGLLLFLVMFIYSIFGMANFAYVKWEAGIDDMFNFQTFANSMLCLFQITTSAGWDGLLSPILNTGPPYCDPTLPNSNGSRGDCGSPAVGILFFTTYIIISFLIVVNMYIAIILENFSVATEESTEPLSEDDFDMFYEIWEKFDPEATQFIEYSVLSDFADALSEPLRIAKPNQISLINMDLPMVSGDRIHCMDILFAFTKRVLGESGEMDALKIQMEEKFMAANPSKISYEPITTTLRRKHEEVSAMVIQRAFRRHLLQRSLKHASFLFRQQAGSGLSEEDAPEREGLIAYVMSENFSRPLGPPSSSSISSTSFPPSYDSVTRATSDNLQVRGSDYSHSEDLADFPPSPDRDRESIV

T1 sequence (Q15858 whole entry): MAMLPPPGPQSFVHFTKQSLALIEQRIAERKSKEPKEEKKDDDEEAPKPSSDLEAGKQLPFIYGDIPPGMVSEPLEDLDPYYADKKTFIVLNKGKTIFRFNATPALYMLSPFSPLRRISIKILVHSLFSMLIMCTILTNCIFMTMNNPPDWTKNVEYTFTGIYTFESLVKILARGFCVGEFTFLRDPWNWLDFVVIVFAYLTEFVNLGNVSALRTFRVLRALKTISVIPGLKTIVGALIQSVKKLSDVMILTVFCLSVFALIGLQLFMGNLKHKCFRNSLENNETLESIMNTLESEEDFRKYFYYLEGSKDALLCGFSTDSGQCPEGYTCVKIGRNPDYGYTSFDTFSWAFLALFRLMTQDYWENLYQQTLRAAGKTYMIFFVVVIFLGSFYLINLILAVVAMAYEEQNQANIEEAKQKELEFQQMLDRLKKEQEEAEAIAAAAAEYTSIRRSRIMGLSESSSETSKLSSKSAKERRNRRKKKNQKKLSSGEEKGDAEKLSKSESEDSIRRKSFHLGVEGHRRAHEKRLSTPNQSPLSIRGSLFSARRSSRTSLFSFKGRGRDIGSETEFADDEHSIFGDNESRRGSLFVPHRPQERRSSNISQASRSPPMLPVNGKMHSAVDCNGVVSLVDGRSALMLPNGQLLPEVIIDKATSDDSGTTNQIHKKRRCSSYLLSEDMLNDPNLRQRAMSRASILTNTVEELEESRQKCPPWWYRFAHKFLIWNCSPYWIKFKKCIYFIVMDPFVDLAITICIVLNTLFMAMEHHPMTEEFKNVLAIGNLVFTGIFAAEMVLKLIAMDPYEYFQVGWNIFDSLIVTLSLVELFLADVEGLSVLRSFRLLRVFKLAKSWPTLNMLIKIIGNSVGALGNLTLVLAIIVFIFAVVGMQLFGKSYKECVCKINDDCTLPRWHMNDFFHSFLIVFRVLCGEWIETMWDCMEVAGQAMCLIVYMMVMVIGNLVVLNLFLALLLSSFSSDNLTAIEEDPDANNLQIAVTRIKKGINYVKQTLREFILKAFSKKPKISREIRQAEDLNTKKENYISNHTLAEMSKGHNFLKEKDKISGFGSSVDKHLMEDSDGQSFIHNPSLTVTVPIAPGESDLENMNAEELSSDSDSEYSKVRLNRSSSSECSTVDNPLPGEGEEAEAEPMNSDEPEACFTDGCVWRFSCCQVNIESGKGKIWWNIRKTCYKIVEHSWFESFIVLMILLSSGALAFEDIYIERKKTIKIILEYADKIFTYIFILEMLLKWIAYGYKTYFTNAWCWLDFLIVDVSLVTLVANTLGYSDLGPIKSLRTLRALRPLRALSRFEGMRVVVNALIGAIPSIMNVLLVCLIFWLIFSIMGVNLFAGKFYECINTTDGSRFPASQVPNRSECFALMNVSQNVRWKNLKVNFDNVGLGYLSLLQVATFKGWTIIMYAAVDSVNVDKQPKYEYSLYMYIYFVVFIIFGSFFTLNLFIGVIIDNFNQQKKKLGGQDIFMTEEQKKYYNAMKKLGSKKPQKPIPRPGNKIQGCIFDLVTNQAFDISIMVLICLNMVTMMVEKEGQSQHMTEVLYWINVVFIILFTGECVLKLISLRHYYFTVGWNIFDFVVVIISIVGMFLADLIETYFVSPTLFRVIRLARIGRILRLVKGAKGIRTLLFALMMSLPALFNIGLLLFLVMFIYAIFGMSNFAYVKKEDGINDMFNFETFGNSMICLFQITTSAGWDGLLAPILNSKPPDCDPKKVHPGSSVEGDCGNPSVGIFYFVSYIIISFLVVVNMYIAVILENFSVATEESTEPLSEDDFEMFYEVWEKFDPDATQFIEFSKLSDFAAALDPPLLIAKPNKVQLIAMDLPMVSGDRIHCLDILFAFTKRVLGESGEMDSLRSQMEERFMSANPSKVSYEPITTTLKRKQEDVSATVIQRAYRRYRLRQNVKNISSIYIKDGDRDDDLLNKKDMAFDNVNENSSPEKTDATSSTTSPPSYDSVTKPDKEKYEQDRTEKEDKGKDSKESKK

IC50 [1]: 0.046 µM
SMILES: Cn1cc(-c2ccc(C(F)F)cc2)c2cc(F)c(C(=O)NS(=O)(=O)C3CC3)cc21

IC50 [2]: 0.09 µM
SMILES: CC(C)COc1ncc(-c2cn(C)c3cc(C(=O)NS(C)(=O)=O)ccc23)cc1Cl

SMILES: Cn1cc(-c2ccc(C(F)(F)F)cc2)c2cc(F)c(C(=O)NS(C)(=O)=O)cc21
IC50 [3]: 30 µM
